In patent US7868135B2, “Compositions of lipopeptide antibiotic derivatives and methods of use thereof” (priority 2003, dated 2011):
Marks after values point to notes of the source that are not given here.

System: Staphylococcus aureus (MSSA)
Conditions: S. aureus (MSSA), CAMHB supplemented with 0.625 mM calcium, 24 hours at about 37° C.; a range = compound tested multiple times
How it was run: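 Broth microdilution MIC per NCCLS M7-A6 with doubling serial dilutions, in cation-adjusted Mueller-Hinton broth supplemented with 0.625 mM calcium.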

Row | Substance | MIC
1 | C15-Amphomycin-9-(Carbamoyl-Leu) [Compound 204] | 16 µg/mL
2 | C17-Amphomycin-Gly-Lys [Compound 142] | 142/32 μg/mL
3 | CH3—(CH2)7—NH—C(═O)-(M-Phenylacetyl)-Amphomycin [Compound 306] | 16 µg/mL
4 | CH3—(CH2)7—NH—C(═O)-(p-Phenylacetyl)-Amphomycin [Compound 288] | 16 µg/mL
5 | CH3—(CH2)10—NH—C(═O)-(M-Phenylacetyl)-Amphomycin [Compound 362] | 0.5 µg/mL
6 | CH3—(CH2)10—NH—C(═O)-(p-Phenylacetyl)-Amphomycin [Compound 290] | 1 µg/mL
7 | CH3—(CH2)13—NH—C(═O)-(M-Phenylacetyl)-Amphomycin [Compound 292] | 1 µg/mL
8 | CH3—(CH2)13—NH—C(═O)-(p-Phenylacetyl)-Amphomycin [Compound 289] | 2 µg/mL
9 | CH3—(CH2)15—NH—C(═O)-(M-Phenylacetyl)-Amphomycin [Compound 302] | 4 µg/mL
10 | CH3—(CH2)15—NH—C(═O)-(p-Phenylacetyl)-Amphomycin [Compound 287] | 4 µg/mL
11 | Lys-Gly-Amphomycin-9-C13 [Compound 332] | >64 µg/mL
12 | β-Isomer of (8-Dodecyloxy-Quinoline-2-Carbonyl)-Amphomycin [Compound 340] | 4 µg/mL
13 | β-Isomer of CH3—(CH2)10—NH—C(═O)-(GABA)-Amphomycin [Compound 330] | >64^† μg/mL
14 | β-Isomer of CH3—(CH2)13—NH—C(═O)-Amphomycin [Compound 329] | 4^† μg/mL
